# Experimental data reported in EPA's ToxRefDB 2.
# How the values were obtained:
# rat [1] = conditions: Combined chronic toxicity/carcinogenicity, sprague dawley, Oral, Feed, dose end: 108 week, group: systemic
# dog [2] = conditions: Chronic toxicity, beagle, Oral, Gavage/Intubation, dose end: 6 month, group: systemic
# mouse [3] = conditions: Carcinogenicity, cd1, Oral, Feed, dose end: 104 week, group: systemic
# mouse [4] = conditions: Combined chronic toxicity/carcinogenicity, b6c3f1, Oral, Water, dose end: 104 week, group: systemic
# mouse [5] = conditions: Subchronic oral toxicity in rodents, cd1, Feed, dose end: 13 week, group: systemic
# rat [6] = conditions: Prenatal developmental toxicity study, sprague dawley, Oral, Gavage/Intubation, dose end: 15 GD
# mouse [7] = conditions: Subchronic oral toxicity in rodents, cd1, Feed, dose end: 17 week, group: systemic, systemic / organ weight / liver / absolute + systemic / organ weight / liver / relative to body weight + systemic / organ weight / liver / …
# mouse [8] = conditions: Carcinogenicity, cd1, Oral, Feed, dose end: 24 month, group: systemic
# rat [9] = conditions: Combined chronic toxicity/carcinogenicity, sprague dawley, Oral, Feed, dose end: 24 month, group: systemic
# dog [10] = conditions: Subchronic oral toxicity in nonrodent, beagle, Feed, dose end: 13 week, group: systemic, systemic / pathology microscopic / stomach / [other]
# rat [11] = conditions: Subchronic oral toxicity in rodents, other, Feed, dose end: 3 month, group: systemic
# dog [12] = conditions: Chronic toxicity, beagle, Oral, Feed, dose end: 52 week, group: systemic
# rat [13] = conditions: Multigenerational reproductive toxicity study, other, Oral, Feed, dose end: 2 generation
# mouse [14] = conditions: Carcinogenicity, cd1, Oral, Feed, dose end: 18 month, group: systemic
# rat [15] = conditions: Prenatal developmental toxicity study, sprague dawley, Oral, Gavage/Intubation, dose end: 15 GD; remark: listed apart in the source
# rabbit = conditions: Prenatal developmental toxicity study, new zealand white, Oral, Gavage/Intubation, dose end: 19 GD
# mouse [16] = conditions: Subchronic oral toxicity in rodents, cd1, Feed, dose end: 13 week, group: systemic, systemic / pathology microscopic / liver / hypertrophy + systemic / pathology microscopic / liver / necrosis + systemic / pathology …
# [17] = systemic / pathology microscopic / adrenal gland / hyperplasia + systemic / pathology microscopic / thyroid gland / hyperplasia
# [18] = systemic / pathology microscopic / adrenal gland / hyperplasia + systemic / pathology microscopic / thyroid gland / hyperplasia + systemic…
# [19] = systemic / organ weight / thyroid gland / absolute
# [20] = systemic / organ weight / thyroid gland / absolute + systemic / hematology / platelet / platelet + systemic / in life observation / body …
# [21] = systemic / pathology microscopic / liver / pigmentation
# [22] = systemic / in life observation / body weight / body weight
# [23] = systemic / in life observation / body weight / body weight + systemic / in life observation / water consumption / water consumption
# [24] = systemic / pathology microscopic / liver / hypertrophy + systemic / pathology microscopic / liver / necrosis + systemic / pathology …
# [25] = group: developmental, developmental / developmental malformation / bone / short + developmental / developmental malformation / bone / unossified + developmental…
# [26] = group: maternal, systemic / in life observation / body weight / body weight gain + systemic / in life observation / food consumption / food consumption
# [27] = group: maternal, systemic / in life observation / body weight / body weight gain + systemic / in life observation / food consumption / food consumption + …
# [28] = systemic / pathology microscopic / liver / lesion(s) (nos) + systemic / organ weight / liver / nos
# [29] = systemic / in life observation / body weight / body weight gain + systemic / pathology microscopic / liver / hypertrophy + systemic / …
# [30] = systemic / in life observation / body weight / body weight gain
# [31] = systemic / pathology microscopic / mammary gland / hypertrophy
# [32] = systemic / pathology microscopic / stomach / hyperemia
# [33] = group: offspring, systemic / in life observation / body weight / offspring (pup) weight + systemic / pathology microscopic / liver / hypertrophy
# [34] = group: offspring, systemic / in life observation / body weight / offspring (pup) weight + systemic / pathology microscopic / liver / hypertrophy + …
# [35] = group: parental, systemic / pathology microscopic / liver / hypertrophy
# [36] = group: parental, systemic / pathology microscopic / liver / hypertrophy + systemic / in life observation / food consumption / food consumption + systemic / …
# [37] = group: reproductive, reproductive / offspring survival early / litter size / litter size + reproductive / offspring survival early / birth index / live birth …
# [38] = systemic / pathology microscopic / liver / hypertrophy + systemic / organ weight / liver / absolute + systemic / organ weight / liver / …
# [39] = group: developmental, developmental / developmental malformation / mouth / jaw / cleft palate + systemic / in life observation / body weight / fetal weight
# [40] = group: maternal, systemic / in life observation / body weight / body weight gain + systemic / in life observation / clinical signs / ataxia + systemic / in …
# [41] = group: developmental, developmental / developmental malformation / bone / full supernumerary
compound,measurement,setting,value
COC(=O)NS(=O)(=O)c1ccc(N)cc1 [Asulam],LEL,rat [1]; [17],180 mg/kg/day
same,LOAEL,rat [1]; [17],180 mg/kg/day
same,NEL,rat [1]; [18],36 mg/kg/day
same,NOAEL,rat [1]; [18],36 mg/kg/day
same,LEL,dog [2]; [19],300 mg/kg/day
same,LOAEL,dog [2]; [19],300 mg/kg/day
same,NEL,dog [2]; [20],60 mg/kg/day
same,NOAEL,dog [2]; [20],60 mg/kg/day
same,LOAEL,mouse [3]; systemic / in life observation / body weight / body weight gain + systemic / organ weight / spleen / nos,8040 mg/kg/day
same,LEL,mouse [3]; [21],74 mg/kg/day
same,NEL,mouse [3]; [21],< 74 mg/kg/day
same,NOAEL,mouse [3]; systemic / pathology microscopic / liver / pigmentation + systemic / in life observation / body weight / body weight gain + systemic / organ…,730 mg/kg/day
NCl [Chloramine],LEL,mouse [4]; [22],6.67 mg/kg/day
same,NEL,mouse [4]; [22],< 6.67 mg/kg/day
same,LOAEL,mouse [4]; [23],> 26.7 mg/kg/day
same,NOAEL,mouse [4]; [23],≥ 26.7 mg/kg/day
CCCC1COC(Cn2cncn2)(c2ccc(Cl)cc2Cl)O1 (stereo not drawn) [Propiconazole],LOAEL,mouse [5]; systemic / pathology microscopic / liver / hypertrophy,65 mg/kg/day
same,LEL,mouse [5]; systemic / pathology microscopic / liver / hypertrophy + systemic / pathology microscopic / liver / necrosis,65 mg/kg/day
same,NEL,mouse [5]; [24],2.7 mg/kg/day
same,NOAEL,mouse [5]; [24],2.7 mg/kg/day
same,LEL,rat [6]; [25],90 mg/kg/day
same,LOAEL,rat [6]; [25],90 mg/kg/day
same,NEL,rat [6]; [25],30 mg/kg/day
same,NOAEL,rat [6]; [25],30 mg/kg/day
same,LEL,rat [6]; [26],90 mg/kg/day
same,NEL,rat [6]; [27],30 mg/kg/day
same,NOAEL,rat [6]; [27],90 mg/kg/day
same,LOAEL,"rat [6]; group: maternal, systemic / in life observation / clinical signs / ataxia + systemic / in life observation / clinical signs / lethargy + systemic / in life …",300 mg/kg/day
same,LEL,mouse [7],65 mg/kg/day
same,LOAEL,mouse [7],65 mg/kg/day
same,NEL,mouse [7],2.7 mg/kg/day
same,NOAEL,mouse [7],2.7 mg/kg/day
same,NEL,mouse [8]; systemic / organ weight / liver / nos + systemic / clinical chemistry / alanine aminotransferase (alt/sgpt) / alanine aminotransferase (alt/…,10 mg/kg/day
same,LEL,mouse [8]; [28],49.4 mg/kg/day
same,LOAEL,mouse [8]; [28],49.4 mg/kg/day
same,NOAEL,mouse [8]; systemic / pathology microscopic / liver / lesion(s) (nos) + systemic / organ weight / liver / nos + systemic / pathology microscopic / …,10 mg/kg/day
same,LEL,rat [9]; [29],96.4 mg/kg/day
same,LOAEL,rat [9]; [29],96.4 mg/kg/day
same,NOAEL,rat [9]; [29],18.1 mg/kg/day
same,NEL,rat [9]; systemic / organ weight / liver / nos,18.1 mg/kg/day
same,LEL,dog [10],6.25 mg/kg/day
same,LOAEL,dog [10],6.25 mg/kg/day
same,NEL,dog [10],1.25 mg/kg/day
same,NOAEL,dog [10],1.25 mg/kg/day
same,LEL,rat [11]; [30],16.8 mg/kg/day
same,LOAEL,rat [11]; [30],77.6 mg/kg/day
same,NEL,rat [11]; [30],< 16.8 mg/kg/day
same,NOAEL,rat [11]; systemic / in life observation / body weight / body weight gain + systemic / clinical chemistry / alkaline phosphatase (alp/alk) / alkaline …,16.8 mg/kg/day
same,LEL,dog [12]; [31],1.9 mg/kg/day
same,NEL,dog [12]; [31],0.2 mg/kg/day
same,LOAEL,dog [12]; [32],8.4 mg/kg/day
same,NOAEL,dog [12]; [32],1.9 mg/kg/day
same,NEL,rat [13]; [33],48 mg/kg/day
same,NOAEL,rat [13]; [33],48 mg/kg/day
same,LEL,rat [13]; [34],238 mg/kg/day
same,LOAEL,rat [13]; [34],238 mg/kg/day
same,LEL,rat [13]; [35],42 mg/kg/day
same,LOAEL,rat [13]; [35],42 mg/kg/day
same,NEL,rat [13]; [36],8 mg/kg/day
same,NOAEL,rat [13]; [36],8 mg/kg/day
same,LEL,rat [13]; [37],238 mg/kg/day
same,LOAEL,rat [13]; [37],> 238 mg/kg/day
same,NEL,rat [13]; [37],48 mg/kg/day
same,NOAEL,rat [13]; [37],≥ 238 mg/kg/day
same,LOAEL,mouse [14]; systemic / pathology microscopic / liver / hypertrophy + systemic / in life observation / body weight / body weight gain,59 mg/kg/day
same,LEL,mouse [14]; systemic / pathology microscopic / liver / hypertrophy + systemic / in life observation / body weight / body weight gain + systemic / organ …,59 mg/kg/day
same,NEL,mouse [14]; [38],11 mg/kg/day
same,NOAEL,mouse [14]; [38],11 mg/kg/day
same,LEL,rat [15]; [39],300 mg/kg/day
same,LOAEL,rat [15]; [39],> 300 mg/kg/day
same,NEL,rat [15]; [39],< 300 mg/kg/day
same,NOAEL,rat [15]; [39],≥ 300 mg/kg/day
same,LEL,rat [15]; [40],300 mg/kg/day
same,LOAEL,rat [15]; [40],300 mg/kg/day
same,NEL,rat [15]; [40],< 300 mg/kg/day
same,NOAEL,rat [15]; [40],< 300 mg/kg/day
same,LEL,rabbit; [41],400 mg/kg/day
same,LOAEL,rabbit; [41],> 400 mg/kg/day
same,NEL,rabbit; [41],250 mg/kg/day
same,NOAEL,rabbit; [41],≥ 400 mg/kg/day
same,LEL,rabbit; [26],250 mg/kg/day
same,LOAEL,rabbit; [26],250 mg/kg/day
same,NEL,rabbit; [27],100 mg/kg/day
same,NOAEL,rabbit; [27],100 mg/kg/day
same,LEL,mouse [16],65 mg/kg/day
same,LOAEL,mouse [16],65 mg/kg/day
same,NEL,mouse [16],2.7 mg/kg/day
same,NOAEL,mouse [16],2.7 mg/kg/day
